Experimental data published in ChEMBL document CHEMBL1795238, “Structure-brain exposure relationships in rat and human using a novel data set of unbound drug concentrations in brain interstitial and cerebrospinal fluids” (J Med Chem, 2009).

Tests used:
[1] = tested on: Plasma; conditions: rat, iv, 4 h
[2] = tested on: Brain; conditions: rat, in vivo, iv, 4 h
[3] = in vivo; conditions: Sprague-Dawley, rat, iv, 2 (umol/kg)/hr
[4] = in vivo; conditions: Sprague-Dawley, rat, iv, 2 (umol/kg)/hr; remark: listed apart in the source
[5] = in vivo; conditions: Sprague-Dawley, rat, iv, 2 (umol/kg)/hr; remark: listed apart in the source
[6] = in vitro; conditions: Sprague-Dawley, rat, plasma, iv, 2 (umol/kg)/hr
[7] = clinical; conditions: human, CSF and plasma
[8] = tested on: Plasma; conditions: rat, iv, 4 h; remark: listed apart in the source
[9] = Sprague-Dawley, rat, brain, iv, 2 (umol/kg)/hr, 4 h

Row | Structure (SMILES) | Cp(f) [1] [nM] | Vdu [2] [mL] | Kp at 4 h ([3]; brain and plasma) | Kp uu at 4 h ([4]; brain and plasma) | Kp uu at 4 h ([5]; CSF and plasma) | fraction unbound at 4 h [6] | Kp uu [7] | Fu [8] | Kp at 4 h ([3]; brain) | Kp uu at 4 h ([4]; brain) | Kp uu at 4 h ([5]; csf) | BPR [9]
1 | C[C@H]1COc2c(N3CCN(C)CC3)c(F)cc3c(=O)c(C(=O)O)cn1c23.C[C@H]1COc2c(N3CCN(C)CC3)c(F)cc3c(=O)c(C(=O)O)cn1c23.O [LEVOFLOXACIN] | 590 | 1.7 | 0.17 | 0.12 | 0.19 | 0.82 | 0.18 | – | – | – | – | –
2 | CC1(C)O[C@@H]2[C@@H](CO[C@@]3(COS(N)(=O)=O)OC(C)(C)O[C@@H]23)O1 [TOPIRAMATE] | 3400 | 3.2 | 0.84 | 0.33 | 0.63 | 0.79 | 1 | – | – | – | – | –
3 | CSc1ccc2c(c1)N(CCC1CCCCN1C)c1ccccc1S2 (stereo not drawn) [THIORIDAZINE] | 1.3 | 3333 | – | – | – | – | 1.4 | 0.002 | 3.75 | 0.45 | 0.21 | –
4 | O=C(O)c1cc(/N=N/c2ccc(S(=O)(=O)Nc3ccccn3)cc2)ccc1O [SULFASALAZINE] | 13 | – | – | – | 0.032 | 0.005 | – | – | – | – | – | –
5 | CC(C)(C)NC(=O)[C@@H]1C[C@@H]2CCCC[C@@H]2CN1C[C@@H](O)[C@H](Cc1ccccc1)NC(=O)[C@H](CC(N)=O)NC(=O)c1ccc2ccccc2n1 | 3 | 208 | – | – | – | 0.007 | 0.096 | – | 0.08 | 0.055 | – | –
6 | COc1cccc(C2(O)CCCCC2CN(C)C)c1 (stereo not drawn) [TRAMADOL] | 300 | 4.2 | – | – | – | 0.85 | 1.44 | – | 5.29 | 1.46 | 0.71 | –
7 | CCn1cc(C(=O)O)c(=O)c2cc(F)c(N3CCNCC3)cc21 [NORFLOXACIN] | 700 | 2.9 | – | – | – | 0.87 | 0.11 | – | 0.07 | 0.028 | 0.018 | –
8 | Nc1nnc(-c2cccc(Cl)c2Cl)c(N)n1 [LAMOTRIGINE] | 1800 | 4.6 | – | – | – | 0.51 | 1.1 | – | – | 0.88 | 0.86 | 2.02
9 | Cc1cn([C@H]2C[C@H](N=[N+]=[N-])[C@@H](CO)O2)c(=O)[nH]c1=O [ZIDOVUDINE] | 1200 | – | – | – | – | 0.64 | – | – | – | – | – | –
10 | CN(C)C(=O)C(CCN1CCC(O)(c2ccc(Cl)cc2)CC1)(c1ccccc1)c1ccccc1 [LOPERAMIDE] | 54 | 370 | 0.15 | 0.007 | 0.037 | 0.06 | – | – | – | – | – | –
11 | O=C1CN(/N=C/c2ccc([N+](=O)[O-])o2)C(=O)N1 [NITROFURANTOIN] | 710 | 1.6 | – | – | – | 0.48 | – | – | 0.008 | 0.011 | 0.0099 | –
12 | NCC(CC(=O)O)c1ccc(Cl)cc1 (stereo not drawn) [BACLOFEN] | 4200 | 1.7 | 0.03 | 0.02 | 0.027 | 1 | 0.17 | – | – | – | – | –
13 | NCC1(CC(=O)O)CCCCC1 [GABAPENTIN] | 5200 | 4.6 | 0.64 | 0.14 | 0.067 | 1 | 0.16 | – | – | – | – | –
14 | C=CCOc1ccccc1OCC(O)CNC(C)C (stereo not drawn) [OXPRENOLOL] | 210 | 11.8 | – | – | – | 0.45 | – | – | 1.06 | 0.2 | 0.1 | –
15 | COc1ccc2c3c1O[C@H]1C(=O)CC[C@@]4(O)[C@@H](C2)N(C)CC[C@]314 [OXYCODONE] | 330 | – | – | – | – | 0.87 | – | – | – | – | – | –
16 | Nc1c2c(nc3ccccc13)CCCC2 [TACRINE] | 120 | 22 | – | – | – | 0.55 | 0.74 | – | 9.56 | 0.78 | 0.67 | –
17 | CN1CC[C@]23c4c5ccc(O)c4O[C@H]2C(=O)CC[C@@]3(O)[C@H]1C5 [OXYMORPHONE] | 240 | 4 | 2.29 | 0.79 | 0.91 | 0.73 | – | – | – | – | – | –
18 | COc1ccc(CCN(C)CCCC(C#N)(c2ccc(OC)c(OC)c2)C(C)C)cc1OC (stereo not drawn) | 75 | – | – | – | – | – | – | – | – | – | – | –
19 | CC(C)(C)NCC(O)COc1cccc2c1CC(O)C(O)C2 (stereo not drawn) [NADOLOL] | 780 | – | – | – | – | 0.86 | – | – | – | – | – | –
